How the values were obtained:
pyruvate dehydrogenase = assay: Production of pyruvate dehydrogenase modulating activity in crude extracts of plasma membrane derived supernatants; format: biochemical
[1] = tested on: diacylglycerol in BC3 Hl myocytes; assay: Diacylglycerol production, [^3 H]myristic acid labeled myocytes; format: cell-based, murine; settings: insulin
Method: (§1) Myocytes were incubated for 20 hrs. in serum free DMEM with [9,10^3 H] myristic acid (New England Nuclear), complexed 1:1 to bovine serum albumin. Insulin was added to cells in fresh media for the designated intervals, and reactions were stopped by removal of media and addition of 1 ml chloroform/methanol/IN HCl (200:100:1). 0.6 ml H2 O was added and upper aqueous phases were discarded following centrifugation at 500×g for 5 minutes. The lower, organic phases were dried under N2 and resuspended in 1 ml diethyl ether followed by addition of 1 […]. The upper ether phase was aspirated and the lower phase reextracted with 1 ml diethyl ether. The combined ether phases, containing diacylglycerol, were dried under N2, resuspended in chloroform and spotted on silica gel G plates which were preactivated at 60° C. for 1 hr. Plates were twice developed in petroleum ether/diethyl ether/glacia acetic acid (70:30:2). […] Lipids were scraped and radioactivity determined in a liquid scintillation counter.
(§2) The phosphodiesteratic cleavage of a phospolipid by insulin should also be reflected by increased production of diacylglycerol, which could serve as substrate for a diglyceride kinase, producing phosphatidic acid. Myocytes were preincubated with [^3 H]myristic acid and both diacylglycerol and phosphatidic acid labeling were evaluated by thin layer chromatography (FIG. 6).

[2] = tested on: phosphatidic acid in BC3 Hl myocytes; assay: Phosphatidic acid production, [^3 H]myristic acid labeled myocytes; format: cell-based, murine; settings: insulin, by 5 minutes
Method: as §1, §2

polyphosphoinositides = settings: cited from earlier work
[3] = tested on: glycolipid precursor in BC3 Hl cells; assay: Radiolabel in glycolipid precursor (TLC), insulin treated cells; format: cell-based, murine
Method: (A) [^3 H]inositol and (B) [^3 H]glucosamine labeled cells were treated with or without 10 nM insulin. Following extraction and phase separation, the organic phase were dried under N2, resuspended in chloroform/methanol/H2 O (9:7:2); and spotted on oxalate impregnated Silica gel G plates. These were twice developed in chloroform/acetone/methanol/glacial acetic acid/H2 O (10:4:2:2:1). One cm regions were scraped and radioactivity determined by scintillation counting. Phosphoinositides were identified by iodine staining of standards.
Cells prelabeled with [^3 H]inositol were treated with 10 nM insulin for the designated intervals. Cells were extracted and phase separated as detailed in FIG. 7. Aqueous phases were chromatographed up to and including the SAX HPLC step (upper panel). Results reflect counts from a combination of Peaks I and II. The ratio of counts in these peaks were unchanged over the time course. The precursor residing in the organic phases was identified by the peak on TLC with an Rf =0.22, corresponding to the species depleted by PI-PLC (FIG. 10).

[4] = tested on: low Km cAMP phosphodiesterase (PDE) from rat adipocyte particulate fraction; assay: Generation of PDE messenger from liver membranes; extracts assayed for modulation of cAMP phosphodiesterase; format: biochemical
Method: These were generated from bovine liver particulate fractions by a modification of previously described methods. Particulate fraction was prepared from 100 g of bovine liver, and suspended in […] ammonium bicarbonate, pH 7.4. (Buffer A) at a final concentration of 2-4 mg protein/ml. This solution was incubated with 10 mM for 10 min at 37° C., acidified to pH 4.0 with formic acid and sedimented at 45,000 g for 20 min. An equal volume of chloroform/methanol (2:1) was added to the supernatant, and the upper phase was aspirated and methanol was evaporated.
In the tests the results of which are tabulated above, liver membranes were treated as indicated for 10 min at 37° C., centrifuged and supernatants were extracted and purified up to and including the Dowex 50WX-4 step as described earlier herein under "Experimental Procedures". Partially purified extracts were assayed for ability to modulate cAMP phosphodiesterase. Basal activity was 56.2 pmoles/mg protein^-1 -min^-1.

BC3 Hl cells = assay: Incorporation of radiolabel into water soluble products (SAX HPLC Peaks I and II), insulin treated cells; format: cell-based, murine; settings: 10 nM insulin
Method: BC3 Hl cells were cultured at 37° C. in Dubelco's Minimal Essential Medium in the presence of 20% NU serum (Collaborative Research) on collagen coated 10 mm miniwells. Cells (1×10^6 /well) were preincubated with 10 μCi A) [2,6^3 H]myoinositol or B) [1,6^3 H]glucosamine (New England Nuclear) for 20 hours in the presence of 20% Nu Serum. Insulin was added to cells in monolayer in serum free media at a final concentration of 10 nM. Reactions were terminated by removal of media and addition of 1 ml chloroform/methanol/IN HCl (200:100:1), followed by addition of 0.5 ml 10 mM formic acid. Organic and aqueous phases were separated by centrifugation at 500×g for 5 min.
The water soluble labeled products were purified by a modification of a previously described protocol for purification of cAMP phosphodiesterase (PDE) modulators. The aqueous phases were chromatographed on DEAE-Cellulose, eluted with 0.25 TEA-formate, pH 3.75. This fraction was eluted through a C-18 reversed phase sepak in the same buffer. Following lyophilization, the solution was eluted through Dowex 50WX-4 in 50 mM TEA-formate. pH 3.0. […] One ml fractions were counted. The two peaks of insulin stimulated radioactivity coeluted with similarly purified, myocyte derived PDE modulating activities. […]

Insulin: Monocomponent bovine insulin from Wellcome Laboratores
production of pyruvate dehydrogenase modulating activity (pyruvate dehydrogenase): enhanced | maximal increase in labeled diacylglycerol over basal ([1]; by 5-10 minutes): 50% | labeled diacylglycerol level ([1]; by 2 minutes): near basal levels | increase in levels of [^3 H]myristate phosphatidic acid [2]: 2 fold | hydrolysis of polyphosphoinositides (polyphosphoinositides): does not stimulate hydrolysis of polyphosphoinositides | time course of [^3 H]inositol incorporation into the precursor ([3]; 10 nM insulin): biphasic | decrease in [^3 H]inositol counts in precursor ([3]; 10 nM insulin, 30 sec): 20% | increase in [^3 H]inositol radioactivity in precursor over control levels ([3]; 10 nM insulin, after 30 sec): 60% | time of hydrolysis of the putative glycolipid precursor and appearance of the products ([3]; insulin dependent): less than 1 min | increase in incorporation of [^3 H]glucosamine in precursor peak ([3]; insulin, 10 min): approximately 40% | increase in incorporation of [^3 H]inositol in precursor peak ([3]; insulin, 10 min): approximately 40% | labeling of other lipids ([3]; insulin, 10 min): no significant change | radioactivity in precursor ([3]; intact cells): rapidly diminished | stimulation of PDE modulating activity / increase in production of messengers from membranes ([4]; after partial purification): 4 fold | PDE Activity ([4]; extracts of liver membranes treated 10 min at 37° C., 1.0 nM insulin, 1.0 μg/ml PI-PLC, basal 56.2): 138.0 pmol mg protein^-1 min^-1 | incorporation of [^3 H]inositol into two peaks (I and II) (BC3 Hl cells): increased the incorporation of [^3 H]inositol into two peaks | percent of maximal effect on production of [^3 H]inositol containing products (BC3 Hl cells; 30 sec, Peaks I and II combined): Seventy
